Experimental data from patent US9670227B2, “Thienopyrimidine derivatives, a process for their preparation and pharmaceutical compositions containing them” (LES LABORATOIRES SERVIER, priority 2013, dated 2017).

Legend:
Mcl-1 protein = Mcl-1 protein (UniProtKB primary accession number: Q07820) (Homo sapiens, UniProt Q07820); experiment: Inhibition of Mcl-1 by fluorescence polarisation, Method 1; type: binding; conditions: fluorescence polarisation test; Method 2 values are underlined in the patent (underlining not visible here); read-out: IC50 (M) Mcl-1 FP
Summary of the method: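 An 11-point DMSO dilution of compound is mixed with buffer (10 mM HEPES, 150 mM NaCl, 0.05% Tween 20, pH 7.4) carrying 1 nM fluorescein-labelled ligand and 5 nM Mcl-1, final concentrations. Displacement is monitored by fluorescence polarisation.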

[1] = system: H929 multiple myeloma tumour line; experiment: In vitro cytotoxicity, Microculture Tetrazolium Assay; type: cell-based; conditions: Homo sapiens, NCI-H929, 48 h, H929 cells, 48 hours exposure, MTT; read-out: IC50 (μM) MTT H929
Method: The cytotoxicity studies were carried out on the H929 multiple myeloma tumour line.
The cells are distributed onto microplates and exposed to the test compounds for 48 hours.

Sequence of Mcl-1 protein (Q07820 whole entry): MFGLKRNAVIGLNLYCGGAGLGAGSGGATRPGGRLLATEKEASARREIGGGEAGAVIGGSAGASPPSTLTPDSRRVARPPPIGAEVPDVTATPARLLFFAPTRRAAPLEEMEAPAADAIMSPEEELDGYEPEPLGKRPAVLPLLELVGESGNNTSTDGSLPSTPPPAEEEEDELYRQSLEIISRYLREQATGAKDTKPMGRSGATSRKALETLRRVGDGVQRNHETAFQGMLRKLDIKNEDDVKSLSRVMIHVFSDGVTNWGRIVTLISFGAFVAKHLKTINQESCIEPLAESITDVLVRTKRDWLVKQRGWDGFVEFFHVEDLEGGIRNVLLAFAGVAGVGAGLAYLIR

Cc1c(-c2c(-c3ccc(F)o3)sc3ncnc(OC(Cc4ccccc4OCc4cocn4)C(=O)O)c23)ccc(OCCN2CCN(C)CC2)c1Cl [Example 191, (2R)-2-{[(5Sa)-5-{3-chloro-2-methyl-4-[2-(4-methylpiperazin-1-yl)ethoxy]phenyl}-6-(5-fluorofuran-2-yl)thieno[2,3-d]pyrimidin-4-yl]oxy}-3-[2-(1,3-oxazol-4-ylmethoxy)phenyl]propanoic acid]
IC50 (Mcl-1 protein): 6.5e-09 M | IC50 [1]: 0.063 µM

Cc1c(-c2c(-c3ccc(F)o3)sc3ncnc(OC(Cc4ccccc4OCCN(C)C)C(=O)O)c23)ccc(OCCN2CCN(C)CC2)c1Cl [Example 192, (2R)-2-{[(5Sa)-5-{3-chloro-2-methyl-4-[2-(4-methylpiperazin-1-yl)ethoxy]phenyl}-6-(5-fluorofuran-2-yl)thieno[2,3-d]pyrimidin-4-yl]oxy}-3-{2-[2-(dimethylamino)ethoxy]phenyl}propanoic acid]
IC50 (Mcl-1 protein): 7.7e-09 M | IC50 [1]: 0.848 µM

Cc1c(-c2c(-c3ccc(F)o3)sc3ncnc(OC(Cc4ccccc4OCCO)C(=O)O)c23)ccc(OCCN2CCN(C)CC2)c1Cl [Example 193, (2R)-2-{[(5Sa)-5-{3-chloro-2-methyl-4-[2-(4-methylpiperazin-1-yl)ethoxy]phenyl}-6-(5-fluorofuran-2-yl)thieno[2,3-d]pyrimidin-4-yl]oxy}-3-[2-(2-hydroxyethoxy)phenyl]propanoic acid]
IC50 (Mcl-1 protein): 5.4e-09 M | IC50 [1]: 0.116 µM

COCCOc1ccccc1CC(Oc1ncnc2sc(-c3ccc(F)o3)c(-c3ccc(OCCN4CCN(C)CC4)c(Cl)c3C)c12)C(=O)O [Example 194, (2R)-2-{[(5Sa)-5-{3-chloro-2-methyl-4-[2-(4-methylpiperazin-1-yl)ethoxy]phenyl}-6-(5-fluorofuran-2-yl)thieno[2,3-d]pyrimidin-4-yl]oxy}-3-[2-(2-methoxyethoxy)phenyl]propanoic acid]
IC50 (Mcl-1 protein): 8e-09 M | IC50 [1]: 0.058 µM

Cc1c(-c2c(-c3ccc(F)o3)sc3ncnc(OC(Cc4ccccc4OCCOCCO)C(=O)O)c23)ccc(OCCN2CCN(C)CC2)c1Cl [Example 195, (2R)-2-{[(5Sa)-5-{3-chloro-2-methyl-4-[2-(4-methylpiperazin-1-yl)ethoxy]phenyl}-6-(5-fluorofuran-2-yl)thieno[2,3-d]pyrimidin-4-yl]oxy}-3-{2-[2-(2-hydroxyethoxy)ethoxy]phenyl}propanoic acid]
IC50 (Mcl-1 protein): 5.5e-09 M | IC50 [1]: 0.311 µM

COCCOCCOc1ccccc1CC(Oc1ncnc2sc(-c3ccc(F)o3)c(-c3ccc(OCCN4CCN(C)CC4)c(Cl)c3C)c12)C(=O)O [Example 196, (2R)-2-{[(5Sa)-5-{3-chloro-2-methyl-4-[2-(4-methylpiperazin-1-yl)ethoxy]phenyl}-6-(5-fluorofuran-2-yl)thieno[2,3-d]pyrimidin-4-yl]oxy}-3-{2-[2-(2-methoxyethoxy)ethoxy]phenyl}propanoic acid]
IC50 (Mcl-1 protein): 5.6e-09 M | IC50 [1]: 0.076 µM

COCCOCCOCCOc1ccccc1CC(Oc1ncnc2sc(-c3ccc(F)o3)c(-c3ccc(OCCN4CCN(C)CC4)c(Cl)c3C)c12)C(=O)O [Example 197, (2R)-2-{[(5Sa)-5-{3-chloro-2-methyl-4-[2-(4-methylpiperazin-1-yl)ethoxy]phenyl}-6-(5-fluorofuran-2-yl)thieno[2,3-d]pyrimidin-4-yl]oxy}-3-(2-{2-[2-(2-methoxyethoxy)ethoxy]ethoxy}phenyl)propanoic acid]
IC50 (Mcl-1 protein): 5.4e-09 M | IC50 [1]: 0.07 µM

COc1ccccc1CC(Oc1ncnc2sc(-c3ccc(F)o3)c(-c3ccc(OCCN(C)C)c(Cl)c3C)c12)C(=O)O [Example 199, (2R)-2-{[(5Sa)-5-{3-chloro-4-[2-(dimethylamino)ethoxy]-2-methylphenyl}-6-(5-fluorofuran-2-yl)thieno[2,3-d]pyrimidin-4-yl]oxy}-3-(2-methoxyphenyl)propanoic acid]
IC50 (Mcl-1 protein): 6.6e-09 M | IC50 [1]: 0.28 µM

Cc1c(-c2c(-c3ccc(F)o3)sc3ncnc(OC(Cc4ccccc4OCC(F)(F)F)C(=O)O)c23)ccc(OCCN(C)C)c1Cl [Example 200, (2R)-2-{[(5Sa)-5-{3-chloro-4-[2-(dimethylamino)ethoxy]-2-methylphenyl}-6-(5-fluorofuran-2-yl)thieno[2,3-d]pyrimidin-4-yl]oxy}-3-[2-(2,2,2-trifluoroethoxy)phenyl]propanoic acid]
IC50 (Mcl-1 protein): 6.1e-09 M | IC50 [1]: 0.106 µM

Cc1c(-c2c(-c3ccc(F)o3)sc3ncnc(OC(Cc4ccccc4OCc4ccnc(C(F)(F)F)n4)C(=O)O)c23)ccc(OCCN(C)C)c1Cl [Example 201, (2R)-2-{[(5Sa)-5-{3-chloro-4-[2-(dimethylamino)ethoxy]-2-methylphenyl}-6-(5-fluorofuran-2-yl)thieno[2,3-d]pyrimidin-4-yl]oxy}-3-(2-{[2-(trifluoromethyl)pyrimidin-4-yl]methoxy}phenyl)propanoic acid]
IC50 (Mcl-1 protein): 5.8e-09 M | IC50 [1]: 0.027 µM

Cc1c(-c2c(-c3ccc(F)o3)sc3ncnc(OC(Cc4ccccc4OCc4ccnc(OCC(F)(F)F)n4)C(=O)O)c23)ccc(OCCN(C)C)c1Cl [Example 203, (2R)-2-{[(5Sa)-5-{3-chloro-4-[2-(dimethylamino)ethoxy]-2-methylphenyl}-6-(5-fluorofuran-2-yl)thieno[2,3-d]pyrimidin-4-yl]oxy}-3-(2-{[2-(2,2,2-trifluoroethoxy)pyrimidin-4-yl]methoxy}phenyl)propanoic acid]
IC50 (Mcl-1 protein): 9.1e-09 M | IC50 [1]: 0.005 µM

CCn1nccc1COc1ccccc1CC(Oc1ncnc2sc(-c3ccc(F)o3)c(-c3ccc(OCCN(C)C)c(Cl)c3C)c12)C(=O)O [Example 204, (2R)-2-{[(5Sa)-5-{3-chloro-4-[2-(dimethylamino)ethoxy]-2-methylphenyl}-6-(5-fluorofuran-2-yl)thieno[2,3-d]pyrimidin-4-yl]oxy}-3-{2-[(1-ethyl-1H-pyrazol-5-yl)methoxy]phenyl}propanoic acid]
IC50 (Mcl-1 protein): 4.9e-09 M | IC50 [1]: 0.034 µM

Cc1c(-c2c(-c3ccc(F)o3)sc3ncnc(OC(Cc4ccccc4OCc4ccnn4CC(F)(F)F)C(=O)O)c23)ccc(OCCN(C)C)c1Cl [Example 205, (2R)-2-{[(5Sa)-5-{3-chloro-4-[2-(dimethylamino)ethoxy]-2-methylphenyl}-6-(5-fluorofuran-2-yl)thieno[2,3-d]pyrimidin-4-yl]oxy}-3-(2-{[1-(2,2,2-trifluoroethyl)-1H-pyrazol-5-yl]methoxy}phenyl)propanoic acid]
IC50 (Mcl-1 protein): 3.8e-09 M | IC50 [1]: 0.028 µM

Cc1c(-c2c(-c3ccc(F)o3)sc3ncnc(OC(Cc4ccccc4OCc4cnccn4)C(=O)O)c23)ccc(OCCN(C)C)c1Cl [Example 206, (2R)-2-{[(5Sa)-5-{3-chloro-4-[2-(dimethylamino)ethoxy]-2-methylphenyl}-6-(5-fluorofuran-2-yl)thieno[2,3-d]pyrimidin-4-yl]oxy}-3-[2-(pyrazin-2-ylmethoxy)phenyl]propanoic acid]
IC50 (Mcl-1 protein): 8e-09 M | IC50 [1]: 0.135 µM

Cc1c(-c2c(-c3ccco3)sc3ncnc(OC(Cc4ccccc4O)C(=O)O)c23)ccc(OCCN2CCN(C)CC2)c1Cl [Example 207, (2R)-2-{[-[(5Sa)-5-{3-chloro-2-methyl-4-[2-(4-methylpiperazin-1-yl)ethoxy]phenyl}-6-(furan-2-yl)thieno[2,3-d]pyrimidin-4-yl]oxy}-3-(2-hydroxyphenyl)propanoic acid]
IC50 (Mcl-1 protein): 6.5e-09 M | IC50 [1]: 0.186 µM

Cc1c(-c2c(-c3ccco3)sc3ncnc(OC(Cc4ccccc4OC(C)c4ccncc4)C(=O)O)c23)ccc(OCCN2CCN(C)CC2)c1Cl [Example 208, (2R)-2-{[(5Sa)-5-{3-chloro-2-methyl-4-[2-(4-methylpiperazin-1-yl)ethoxy]phenyl}-6-(furan-2-yl)thieno[2,3-d]pyrimidin-4-yl]oxy}-3-{2-[(1R)-1-(pyridin-4-yl)ethoxy]phenyl}propanoic acid]
IC50 (Mcl-1 protein): 5.5e-09 M | IC50 [1]: 0.571 µM

Cc1c(-c2c(-c3ccco3)sc3ncnc(OC(Cc4ccccc4OC(C)C)C(=O)O)c23)ccc(OCCN2CCN(C)CC2)c1Cl [Example 210, (2R)-2-{[(5Sa)-5-{3-chloro-2-methyl-4-[2-(4-methylpiperazin-1-yl)ethoxy]phenyl}-6-(furan-2-yl)thieno[2,3-d]pyrimidin-4-yl]oxy}-3-[2-(propan-2-yloxy)phenyl]propanoic acid]
IC50 (Mcl-1 protein): 1e-08 M | IC50 [1]: 0.406 µM

Cc1c(-c2c(-c3ccco3)sc3ncnc(OC(Cc4ccccc4OC4CCCC4)C(=O)O)c23)ccc(OCCN2CCN(C)CC2)c1Cl [Example 212, (2R)-2-{[(5Sa)-5-{3-chloro-2-methyl-4-[2-(4-methylpiperazin-1-yl)ethoxy]phenyl}-6-(furan-2-yl)thieno[2,3-d]pyrimidin-4-yl]oxy}-3-[2-(cyclopentyloxy)phenyl]propanoic acid]
IC50 (Mcl-1 protein): 1.6e-08 M | IC50 [1]: 0.616 µM

Cc1c(-c2c(-c3ccco3)sc3ncnc(OC(Cc4ccccc4OC4CCN(C)C4)C(=O)O)c23)ccc(OCCN2CCN(C)CC2)c1Cl [Example 214, (2R)-2-{[(5Sa)-5-{3-chloro-2-methyl-4-[2-(4-methylpiperazin-1-yl)ethoxy]phenyl}-6-(furan-2-yl)thieno[2,3-d]pyrimidin-4-yl]oxy}-3-{2-[(1-methylpyrrolidin-3-yl)oxy]phenyl}propanoic acid]
IC50 (Mcl-1 protein): 9.3e-09 M | IC50 [1]: 0.897 µM

CCOc1ccccc1CC(Oc1ncnc2sc(-c3ccco3)c(-c3ccc(OCCN4CCN(C)CC4)c(Cl)c3C)c12)C(=O)O [Example 215, (2R)-2-{[(5Sa)-5-{3-chloro-2-methyl-4-[2-(4-methylpiperazin-1-yl)ethoxy]phenyl}-6-(furan-2-yl)thieno[2,3-d]pyrimidin-4-yl]oxy}-3-(2-ethoxyphenyl)propanoic acid]
IC50 (Mcl-1 protein): 8e-09 M | IC50 [1]: 0.203 µM
